“And” between values parts separate entries of the source, which are not always exact repeats. Identical values can stand only once.
These molecules were tested against SARS-CoV-2 Main Protease (SARS-CoV-2) (UniProt P0DTD1).

Row | Structure (SMILES) | IC50
1 | O=C(Cc1cccc(Cl)c1)Nc1cnc2n1CCCC2 | 93.8 µM
2 | O=C(CN(C(=O)Cc1cccnc1)c1ccc(-c2ncccn2)cc1)N1CCNCC1 | > 99.5 µM
3 | CC(C)(C)c1cnc(N(C(=O)c2cocn2)C(C(=O)NCCc2cccc(F)c2)c2cccnc2)o1 (stereo unspecified) | 32.4 µM
4 | CC(C)(C)c1ccc(N(C(=O)c2sc(N3CCOCC3)nc2Cl)C(C(=O)NCCc2cccc(F)c2)c2cccnc2)cc1 (stereo unspecified) | > 99.5 µM
5 | O=C(NCCc1cccc(F)c1)C(c1cccnc1)N(C(=O)c1ccco1)C1CCCC(c2ccc(F)c(F)c2)C1 (stereo unspecified) | > 99.5 µM
6 | Cc1ccc2ncnc(NCc3ccc4nonc4c3)c2c1 | > 99.5 µM
7 | O=C(Nc1cncc2ccccc12)C1=CCCc2ccc(Cl)cc21 | 0.233 µM
8 | CCS(=O)(=O)Nc1ccc2c(NC(=O)C3CN(S(=O)(=O)CC4(C#N)CC4)Cc4ccc(Cl)cc43)cncc2c1 (stereo unspecified) | < 0.05 µM
9 | Cc1ccncc1NC(=O)CN1CCCCC1 | > 99.5 µM
10 | COC1CCC2OCCN(C(=O)c3ccc4nc[nH]c4c3)C2C1 (stereo unspecified) | > 99.5 µM
11 | CC(C)(C)c1cc(N(C(=O)c2cocn2)C(C(=O)NCCc2cccc(F)c2)c2cccnc2)no1 (stereo unspecified) | 51.2 µM
12 | CC(C)C[C@@H](NC(=O)[C@@H](Cc1ccccc1)NC(=O)[C@H](N)Cc1ccccc1)C(=O)N[C@H](CCCCN)C(=O)N1CCC(N)(C(=O)O)CC1 (stereo in doubt) | > 99 µM
13 | O=c1c(O[C@@H]2O[C@H](CO)[C@H](O)[C@H](O)[C@H]2O)c(-c2ccc(O)c(O)c2)oc2cc(O)cc(O)c12 (stereo in doubt) | > 99.5 µM
14 | COc1ccc2cncc(NC(=O)C3CCOc4cc(F)c(Cl)cc43)c2c1 (stereo unspecified) | 0.101 µM and 0.114 µM
15 | O=C(CN1CC2(CCN(c3cncc4ccccc34)C2=O)c2cc(Cl)ccc2S1(=O)=O)NCC1CC1 (stereo unspecified) | 0.203 µM
16 | O=C(Nc1cncc2ccccc12)C1CCOc2c(O)ccc(Cl)c21 (stereo unspecified) | > 99.5 µM
17 | O=C(Nc1cnc2ccccn12)C1CCOc2ccc(Cl)cc21 (stereo unspecified) | 3.26 µM
18 | O=C(Nc1ccccc1)[C@@H]1CN(C(=O)CCl)CCN1S(=O)(=O)c1ccsc1 (stereo in doubt) | 0.716 µM
19 | Cn1cc(C(=O)N(c2ccc(C(C)(C)C)cc2)C(C(=O)NCCc2cccc(F)c2)c2cccnc2)n(C)c1=O (stereo unspecified) | > 99.5 µM
20 | O=C(NCCc1cccc(F)c1)C(c1cccnc1)N(C(=O)c1cocn1)c1ccc(-n2ccnc2)cc1 (stereo unspecified) | > 99.5 µM
21 | COc1cc(Nc2cc(Cl)cc(CC(=O)Nc3cncc4ccccc34)c2)c(Cl)cc1Cl | 6.8 µM
22 | CC(C)(C)c1ccc(N(C(=O)c2coc(CS(C)(=O)=O)n2)C(C(=O)NCCc2cccc(F)c2)c2cccnc2)cc1 (stereo unspecified) | 39.2 µM
23 | N#Cc1ccccc1NC(=O)[C@@H](c1ccccc1)N1Cc2ccccc2C1=O (stereo in doubt) | > 99.5 µM
24 | O=C(Cc1cncc2ccccc12)N1CCOc2ccc(Cl)cc21 | 6.05 µM

Row | Structure (SMILES) | IC50
25 | Cc1nc(C2CC2)oc1C(=O)N(c1ccc(C(C)(C)C)cc1)C(C(=O)NCCc1cccc(F)c1)c1cccnc1 (stereo unspecified) | > 99.5 µM
26 | O=C(NCCc1cccc(F)c1)C(c1cccnc1)N(C(=O)c1cocn1)C1CCc2ccccc21 (stereo unspecified) | > 99.5 µM
27 | Cc1ccncc1NC(=O)Cc1cc(Cl)cc(OCc2ncn[nH]2)c1 | 37 µM
28 | CC(C)NC(=O)CN1CC(C(=O)Nc2cncc3ccccc23)c2cc(Cl)ccc2C1=O (stereo unspecified) | 0.389 µM
29 | O=C(Cc1cc(Cl)cc(Nc2ncc(Br)cc2O)c1)Nc1cncc2ccccc12 | 3.23 µM
30 | CCS(=O)(=O)c1c(Cl)cccc1CNC(c1cccc(F)c1)C1CC1 (stereo unspecified) | > 99.5 µM
31 | CS(=O)(=O)c1ccc2c(NC(=O)C3CCOc4ccc(Cl)cc43)cncc2c1 (stereo unspecified) | 0.427 µM
32 | COc1ccc2nnn(CC(=O)N(Cc3ccccn3)c3ccc(C4CCNCC4)cc3)c2c1 | 38.8 µM
33 | Cc1sc2ncnc(N3CCc4c(ncn4C4CC4)C3)c2c1C | > 99.5 µM
34 | CCC1(C(=O)Nc2cncc3ccccc23)CNC(=O)c2ccc(Cl)cc21 (stereo unspecified) | 1.18 µM
35 | C=CC(=O)N(c1ccc(C(C)(C)C)cc1)C(C(=O)NCCCSC)c1cccnc1 (stereo unspecified) | 25.5 µM
36 | O=C(CC1(C(=O)Nc2cncc3ccccc23)CCOc2ccc(Cl)cc21)N1C[C@@H]2C[C@H]1CN2CC(F)F (stereo in doubt) | 3.78 µM
37 | COc1ncc(Br)cc1Nc1cc(Cl)cc(CC(=O)Nc2cncc3ccccc23)c1 | 0.681 µM
38 | O=C(NCCc1cccc(F)c1)C(c1cccnc1)N(C(=O)c1cocn1)c1ccc(-n2cc[nH]c2=O)cc1 (stereo unspecified) | 45.1 µM
39 | CC(NC(=O)c1c(Cl)nc2ccccn12)c1nnc2ccccn12 (stereo unspecified) | > 99.5 µM
40 | CN(C)CCOc1ccc2cncc(NC(=O)C3CN(S(=O)(=O)CC4(C)CS(=O)(=O)C4)Cc4ccc(Cl)cc43)c2c1 (stereo unspecified) | 0.125 µM
41 | O=C(Cc1c[nH]c2cc(Cl)ccc12)Nc1cccc2[nH]c(=O)[nH]c12 | > 99.5 µM
42 | CCN(c1ccccc1)S(=O)(=O)c1ccc(OC)c(NC(=O)CCl)c1 | 3.23 µM
43 | Cc1ccc(Nc2cc(Cl)cc(CC(=O)Nc3cncc4ccccc34)c2)cc1Br | 2.07 µM
44 | O=C(Nc1ccc(Cl)cc1)[C@@H](c1ccccc1)N1Cc2ccccc2C1=O (stereo in doubt) | > 99.5 µM
45 | COc1ccc(N(C(=O)c2cnc[nH]2)C(C(=O)NCCc2cccc(F)c2)c2cccnc2)cc1 (stereo unspecified) | 93.7 µM
46 | Cc1ccc(Nc2cc(Cl)cc(CC(=O)Nc3cncc4ccccc34)c2)cc1I | 2.07 µM
47 | O=C(Cc1cccc(Cl)c1)Nc1[nH]nc2cccc(F)c12 | > 99.5 µM
48 | N#CC1(CS(=O)(=O)N2Cc3ccc(Cl)cc3[C@H](C(=O)Nc3cncc4ccccc34)C2)CNC1 (stereo in doubt) | 0.0562 µM and 0.0849 µM

Row | Structure (SMILES) | IC50
49 | Cc1csc2ncc(C(=O)N3C4CCC3c3ccccc34)c(=O)n12 | > 99.5 µM
50 | Cc1cc2c(N)nc(=O)n(CC(=O)Nc3cccc(Cl)c3)c2s1 | > 99.5 µM
51 | Cn1c(NC(=O)Cc2csc3nccn23)nc2ccc(F)cc21 | > 99.5 µM
52 | COc1cc(Cl)cc(CC(=O)Nc2cnccc2C)c1 | 36.8 µM
53 | C=CC(=O)N1CCN(S(=O)(=O)c2cccs2)CC1 | > 99.5 µM
54 | CC(C)(C)c1ccc(N(C(=O)c2cocn2)C(C(=O)NCCN2CCOCC2)c2cccnc2)cc1 (stereo unspecified) | 82.5 µM
55 | Cc1ccncc1NC(=O)Cc1cc(Cl)cc(C2COC2)c1 | 19.1 µM
56 | O=CC(=O)N1CCN(Cc2cccc(Cl)c2)CC1 | 56.6 µM and 49.6 µM
57 | Cc1ccncc1NC(=O)Cc1cc(Cl)cc(-c2ccc(C3CC3(F)F)cc2)c1 (stereo unspecified) | 8.44 µM
58 | Cc1cccc2ncc(NC(=O)Cc3cccc(Cl)c3)n12 | 5.54 µM
59 | O=C(CC1(C(=O)Nc2cncc3ccccc23)CCOc2ccc(Cl)cc21)Nc1nnco1 (stereo unspecified) | > 99.5 µM
60 | O=C(NCc1ccc2[nH]c(=O)[nH]c2c1)Nc1ccc(F)c(F)c1 | > 99.5 µM
61 | O=C(NCCc1cccc(F)c1)C(c1cccnc1)N(Cc1cccnc1)C(=O)c1cnc[nH]1 (stereo unspecified) | > 99 µM
62 | CC(=O)N1CCN(CC(=O)Nc2cnccc2C2CC2)CC1 | > 99.5 µM
63 | CC(C)(C)NC(=O)CN1CC(C(=O)Nc2cncc3ccccc23)c2cc(Cl)ccc2C1=O (stereo unspecified) | 0.523 µM
64 | CC1CN(Cc2cccc(Cl)c2)CCN1C(=O)CCl (stereo unspecified) | 7.73 µM
65 | O=C(NCCc1ccccc1)[C@@H](c1ccccc1)N1Cc2ccccc2C1=O (stereo in doubt) | > 99.5 µM
66 | O=C(Cc1cc(Cl)cc(NC[C@@H](c2cccnc2)N2CCOCC2)c1)Nc1cncc2ccccc12 (stereo in doubt) | 2.58 µM
67 | COc1cccc2[nH]c(=O)cc(C(=O)N3CCN(c4cccc(Cl)c4)CC3)c12 | 4.68 µM
68 | O=C(Cc1cc(Cl)cc(Oc2cccc(=O)[nH]2)c1)Nc1cncc2ccccc12 | 1.98 µM
69 | Cn1ncc(C(=O)N(c2ccc(C(C)(C)C)cc2)C(C(=O)NCCc2cccc(F)c2)c2cccnc2)n1 (stereo unspecified) | 17.6 µM
70 | O=C(NCCc1cccc(F)c1)C(c1cccnc1)N(C(=O)c1cnc[nH]1)C1CCCCCC1 (stereo unspecified) | > 99 µM
71 | O=C(Cc1cc(Cl)cc(Nc2ccc(N3CCOCC3=O)cc2)c1)Nc1cncc2ccccc12 | 1.99 µM
72 | Cc1nn(-c2cc(Cl)cc(CC(=O)Nc3cncc4ccccc34)c2)c(N)c1Br | 1.72 µM

Row | Structure (SMILES) | IC50
73 | CC(C)NC(=O)CN1CC(C(=O)Nc2cncc3cc(S(C)(=O)=O)ccc23)c2cc(Cl)ccc2C1=O (stereo unspecified) | 0.332 µM
74 | COc1ccc(N(C(=O)c2ccco2)C(C(=O)NCCc2cccc(F)c2)c2cccnc2)cc1 (stereo unspecified) | 30.5 µM
75 | O=C(NCCc1cccc(F)c1)C(c1cccnc1)N(C(=O)c1cocn1)C1CCCCC1 (stereo unspecified) | > 99.5 µM
76 | CCC(C)(C)CCN(Cc1ccsc1)C(=O)Cn1nnc2ccccc21 | 78.5 µM
77 | CC(C)(C)c1ccc(N(C(=O)c2cocn2)C(C(=O)NCC(=O)OCc2ccccc2)c2cccnc2)cc1 (stereo unspecified) | 9.92 µM
78 | O=C(Nc1cncc2ccccc12)[C@@H]1COc2ccc(Cl)cc2C1 (stereo in doubt) | > 99.5 µM
79 | Cc1ccccc1C(C)N(C(=O)c1cocn1)C(C(=O)NCCc1cccc(F)c1)c1cccnc1 (stereo unspecified) | > 99.5 µM
80 | CNC(=O)CN1CC2(CCN(c3cncc4cccc(Cl)c34)C2=O)c2cc(Cl)ccc2C1=O (stereo unspecified) | 1.67 µM
81 | O=C(CCl)N1CCN(Cc2cc(O)cc(Cl)c2)CC1 | 12.9 µM
82 | CS(=O)(=O)Nc1ccc2c(NC(=O)Cc3cccc(Cl)c3)cncc2c1 | 0.882 µM
83 | CC(C)(C)c1ccc(N(C(=O)c2ccncc2)C(C(=O)NCCc2cccc(F)c2)c2cccnc2)cc1 (stereo unspecified) | > 99.5 µM
84 | CNCC1CCCN(C(=O)[C@@H](c2ccccc2)N2Cc3ccccc3C2=O)C1 (stereo in doubt) | > 99.5 µM
85 | CC(C)(C)c1ccc(N(C(=O)c2cocn2)C(C(=O)NCCc2nnn[nH]2)c2cccnc2)cc1 (stereo unspecified) | > 99.5 µM
86 | O=C(Nc1cncc2ccncc12)C1CCOc2cc(F)c(Cl)cc21 (stereo unspecified) | 1.1 µM
87 | CC(C)(C#N)CS(=O)(=O)N1Cc2ccc(Cl)cc2[C@@H](C(=O)Nc2cncc3ccccc23)C1 (stereo in doubt) | 13.2 µM
88 | O=C(NCCc1cccc(F)c1)C(c1cccnc1)N(C(=O)c1cocn1)c1ccc(-c2nnc3n2CCC3)cc1 (stereo unspecified) | > 99.5 µM
89 | CC(C)n1nccc1C(=O)N1Cc2ccc(Cl)cc2C2(CCN(c3cncc4ccccc34)C2=O)C1 (stereo unspecified) | 0.268 µM
90 | CNC(=O)CN1Cc2ccc(Cl)cc2[C@@]2(CCN(c3cncc4c3CCCC4)C2=O)C1 (stereo in doubt) | 0.235 µM
91 | O=c1[nH]c2ccc(-c3csc(NCc4ccc(F)cc4)n3)cc2o1 | > 99.5 µM
92 | C[C@H](C(=O)Nc1cncnc1)c1ccccc1 (stereo in doubt) | > 99.5 µM
93 | CC(C)C[C@@H]1CN(C(=O)CCl)CCN1Cc1cccc(Cl)c1 (stereo in doubt) | 0.784 µM
94 | CC(=O)N1CCc2ccc(Cl)cc2C1C(=O)Nc1cncc2ccccc12 (stereo unspecified) | 2.85 µM
95 | Cc1ccncc1N1CCC(c2cccc(Cl)c2)S1(=O)=O (stereo unspecified) | 85 µM
96 | CC(C)(C#N)CS(=O)(=O)N1Cc2ccc(Cl)cc2[C@H](C(=O)Nc2cncc3ccccc23)C1 (stereo in doubt) | 0.055 µM and 0.0969 µM and 0.141 µM
